In article PMC6433934, “Preclinical Evaluation of Bispecific Adaptor Molecule Controlled Folate Receptor CAR-T Cell Therapy With Special Focus on Pediatric Malignancies” (Frontiers in Oncology, 2019):

Assays:
MDA-MB-231 tumor = assay: Kinetics of CAR-T cell expansion and tumor uptake in vivo; set-up: species or system NSG mice; conditions: ~4.8 million EGFRt-sorted E2-CAR-T cells day 0, EC17 500 nmol/kg weekly i.v.
Description: (§1) All animal care and use were performed according to NIH guidelines and in compliance with protocols approved by the Purdue University Animal Use and Care Committee. Female 4 to 5-weeks-old NOD/SCID gamma (NSG™) mice (stock number: 005557) were purchased from The Jackson Laboratory (Bar Harbor, ME). Unless specifically indicated, all animals were maintained on a FA-deficient diet (TestDiet, St. Louis, MO) upon arrival and throughout the study. To establish subcutaneous xenografts, MDA-MB-231 and HOS-FRα were implanted in the right flank region at 2.5 × 10^6 and 1 × 10^6 cells per animal, respectively. For intravenous xenografts, THP1-FRβ cells were inoculated at 5 × 10^6 cells per animal. Subcutaneous tumors were measured 2–3 times per week with a caliper and calculated using the ellipsoidal formula (length x width^2)/2. […] All animal doses (CAR-T cells, EC17, sodium fluorescein) were given intravenously.
To study CAR-T cell expansion in vivo, we started with 15 MDA-MB-231 tumor bearing mice having ~4.8 million EGFRt-sorted E2-CAR-T cells (1:1 CD4/CD8) injected on day 0. […] For each collection, fresh blood and tumor samples (if available) were analyzed for the presence of human CD3ε+ EGFRt+ CAR-T cells by flow cytometry. Moreover, we analyzed phenotypic changes of E2-CAR-T cells in the circulation (TSCM, TCM, TEM, and TEFF) and the activation status of tumor-infiltrating CAR-T cells (i.e., CD137/4-1BB, PD1).
For CAR-T cell analysis in the circulation, plasma was removed from a predetermined volume of whole blood collected into tubes containing ethylenediaminetetraacetic acid anticoagulant. […] A minimum of 20,000 propidium iodide negative live cell events were collected on the Gallios flow cytometer and analyzed with the Kaluza software, version 2.1 (Beckman Coulter, Brea, CA). CAR-positive T cells were identified in mouse blood as human CD3ε+ EGFRt+ events and absolute numbers per volume of blood were calculated using equal numbers of CountBright™ beads (Invitrogen, Carlsbad, CA) added to each sample. […]

THP1-FRβ = assay: AML study, intravenous xenografts, EC17 dosing regimens; type: in vivo, NSG mice
Description: as §1
For AML studies, mice were intravenously infused with THP1-FRβ tumor cells 1 day prior to receiving a low dose of ~6 million E2-CAR-T cells (~23% EGFRt+). At ~3.5 days post CAR-T cell infusion, EC17 was dosed in 3 different ways including (i) SIW at 500 nmol/kg, (ii) thrice at 5/50/500 nmol/kg on Monday/Wednesday/Friday followed by a 9 day break in between cycles (TIW On/Off), and iii) as escalating doses of 5/10/100 nmol/kg in Cycle 1, 5/30/300 nmol/kg in Cycle 2, and 5/50/500 nmol/kg in Cycle 3, all on Monday/Thursday/Monday with a 6 day break in between cycles (M/Th/M, On/Off). On day 31, satellite animals were harvested for quantification of CAR-positive T cells identified in the mouse blood as human CD3ε+ EGFRt+ events and calculated as absolute numbers per 100 μL of whole blood. Upon euthanasia or at the end of study on day 38, total tumor load in THP1-FRβ tumor-bearing mice was assessed by measuring GFP+ tumor cells in the blood by flow cytometry and collecting liver weight (with metastatic lesions) and total weight of nonliver macrometastases found in the body cavities. Tumor fragments of liver metastases were enzymatically digested into single-cell suspensions and viable cell populations were analyzed for the status of CAR-T cell exhaustion using anti-human PD1, LAG3, and TIM3 (clones EH12.1, T47-530, and 7D3, respectively).
Depending on the CAR-T cell dose and how EC17 is administered, tumor-bearing mice receiving FITC-specific CAR-T cells can experience severe CRS and varying degrees of body weight loss ([27], [33], [34]). Therefore, we developed a CRS grading system (0–5 scale) to empirically assess CRS toxicity from animals' gross morphology and social behavior to allow for better timing of CRS rescue. While grades 0 and 5 indicated normal (no CRS) or death (due to severe CRS), respectively, grades 1, 2, and 3–4 were considered mild, light-to-moderate, and severe CRS. In addition, all EC17 doses were intentionally given toward the end of any given day to allow potential CRS symptoms to develop overnight. On the days immediately following each EC17 dose, animals were scored and rescue agents such as sodium fluorescein, folic acid and leucovorin were used to mitigate CRS toxicity ([33]). In this particular instance, a batch of E2-CAR-T cells with a high EGFRt+ CD4/CD8 ratio (~93:7) was given to HOS-FRα tumor-bearing mice at a mixture of ~2.5 million CD8 and ~33 million CD4 on day 0. When EC17 was dosed, respectively, at 500, 100, and 500 nmol/kg on days 3, 10, and 12, low CRS (grades 1–2) was noted on days 4 and 11 but high CRS (grade 3) was noted on day 13. To mitigate the severe CRS toxicity, sodium fluorescein was intravenously administrated at ~96 mg/kg in the morning of day 13 and mouse plasma samples were collected 6 h later for analysis of CRS-associated cytokines.

Nc1nc2ncc(CNc3ccc(C(=O)NC(CCC(=O)NCCNC(=S)Nc4ccc(-c5c6ccc(=O)cc-6oc6cc(O)ccc56)c(C(=O)O)c4)C(=O)O)cc3)nc2c(=O)[nH]1 (stereo not shown) [EC17, FA-(γ)-ethylenediamine-FITC]
time of peak of circulating CAR-T cells (MDA-MB-231 tumor): ~15 days | tumor response (MDA-MB-231 tumor; smaller tumors): started to respond after the second EC17 dose | persistence of circulating CAR-T cells (MDA-MB-231 tumor; last analysis by flow cytometry): up to 30 days | non-liver macrometastases (THP1-FRβ; EC17 M/Th/M dose escalation at a slow pace per cycle): failed to control | CRS grade (THP1-FRβ; EC17 M/Th/M dose escalation, Cycle 2 after 300 nmol/kg, ~6 million E2-CAR-T cells): 0–1 | CRS grade (THP1-FRβ; EC17 SIW 500 nmol/kg, Cycles 2 and 3, ~6 million E2-CAR-T cells): 1–2 | non-liver macrometastases (THP1-FRβ; EC17 SIW and TIW at 10-fold dose escalation (on/off)): successfully controlled | CRS grade (THP1-FRβ; EC17 TIW 5/50/500 nmol/kg on/off, ~6 million E2-CAR-T cells): 0–1 | cures (THP1-FRβ; THP1-FRβ xenografts, EC17 plus E2-CAR-T cells): no cures | circulating THP1-FRβ tumor cells in the blood (THP1-FRβ; any of the 3 EC17 regimens vs controls, ~6 million E2-CAR-T cells): effectively reduced
